In patent US20250276026A1, “TRANSIENT COMMENSAL MICROORGANISM FOR IMPROVING GUT HEALTH” (INFINANT HEALTH, INC, priority 2016, published 2025):

Test system: Clostridium difficile
Experiment: Outbreak of Clostridium difficile hemorrhagic diarrhea in newborn foals; probiotic formulation vs standard of care
Assay type: in vivo
Details: all animals dosed at birth with 6.6 mg/kg
Method: Newborn foals born to mares at a large horse breeding barn were monitored during an outbreak of severe hemorrhagic diarrhea among the foals. […] Seventeen foals were born during the initial phase of the outbreak, of which fifteen animals became ill and required intervention according to the standard of care as described in the Merck Veterinary Manual. Standard of care involved metronidazole treatment given at a dose of 15-20 mg/kg, PO, tid-qid. and may also involve administration of large volumes of interveneous polyionic fluids, with supplemental electrolytes (potassium, magnesium, and calcium), plasma or synthetic colloids for low oncotic pressure, anti-inflammatoires such as flunixin meglumine, and broad-spectrum antibiotics if the horse is leukopenic and at risk of bacterial translocation across the compromised GI tract. Polymyxin B may aid in binding systemic endotoxin.
Of these seventeen foals, fifteen developed loose stool or diarrhea lasting 3-4 days, and 2 died as a result of the infection. After observing the outbreak, the next foals were provided a formulation of 3×10^12 CFU Bifidobacterium longum subsp. infantis EVBL001 and 5×10^9 CFU of Lactobacillus plantarum EVLP001 every 12 hours. The two foals that were provided with the formulation at 12 hours of age developed a mild diarrhea, but recovered within 8 hours compared to 3-4 days with standard of care. […]

`CO/N=C(\C(=O)N[C@@H]1C(=O)N2C(C(=O)O)=C(CSC(=O)c3ccco3)CS[C@H]12)c1csc(N)n1` [ceftiofur] was tested, and the “effect on health outcome related to diarrhea” value was “did not affect health outcome”.
